Reference: patent US20110142837A1, “Method Of Treating Acute Respiratory Distress Syndrome” (TRUSTEES OF THE UNIVERSITY OF PENNSYLVANIA, priority 2007, published 2011)
Values belong to the molecule of their own block, whether it stands above or below them.

Experiments:
[1] = test system: neutrophils from healthy individuals incubated with BAL fluid from ARDS patients; experiment: mPT of supernatants from healthy neutrophils stimulated with ARDS BAL fluid, inhibition studies; format: cell-based, human
Protocol: Isolation of peripheral blood neutrophils: Circulating leukocytes from all ARDS patients and from 4 healthy donors were immediately isolated from EDTA-treated peripheral blood. Peripheral blood neutrophils were separated by Histopaque-double gradient density centrifugation. The absolute number of neutrophils was adjusted to 2-3×10^6 cells/ml in PBS. Approximately one-quarter (˜6-8×10^5 cells in 250 μl PBS) was used for each stimulation or inhibition reaction. Cell purity (>98%), viability by trypan blue exclusion (>97%), and platelet contamination (<2 platelets/100 neutrophils) were assessed in all experiments.
Modified prothrombin time (mPT) assay: The supernatants from neutrophils that had been incubated with BALF supernatants or/and various agents were isolated by centrifugation at 1000×g for 10 minutes; the supernatants from these neutrophil preparations were checked a second time to confirm the absence of contaminating cells or platelets. The coagulation activities (TF/FVIIa binding activity) of the cell supernatants were determined using a modified prothrombin time (mPT) assay as previously described (18). After performing the “classic” prothrombin time (PT) test (100 microliter (μl) platelet poor plasma (PPP) plus 200 μl thromboplastin ISI 1.9 (Instrumentation Laboratory, Milan, Italy), the modified PT analysis was carried out. Namely, 120 μl of cell or BALF supernatant and 80 μl thromboplastin were added to 100 μl of PPP to measure the changes in PT. As a control for modified PT assays, 120 μl of PBS was used instead of cell supernatant, and the in vitro clotting time usually ranged from 31 seconds to 34 seconds.
(§1) Stimulation and inhibition studies: Neutrophils from healthy individuals were incubated for 120 minutes at 37° C. in PBS containing various stimulatory or inhibitory substances, in a total volume of 250 μl. Neutrophils were incubated with: 1) serum (50 μl) from healthy individuals; 2) serum (50 μl) from patients suffering from ARDS; 3) BAL fluid (40 μl) from ARDS patients; 4) BAL fluid from ARDS patients, together with normal neutrophils that had been pretreated for 30 minutes with the C5aR antagonist AcF-[OpdChaWR] (5 μM final concentration); 5) BAL fluid from patients with ARDS, together with normal neutrophils that had been preincubated for 30 minutes with the C3aR antagonist […], 10 μM final concentration); 6) BAL fluid from ARDS patients pretreated for 30 minutes with Humira® (Abbot Laboratories, Abbott Park, Ill.; anti-TNF monoclonal antibody, 0.4 μg/μl final concentration), together with normal neutrophils; or 7) BAL fluid from ARDS patients, together with normal neutrophils pretreated for 30 minutes with anti-IL-6 Mab (10 μg/ml final concentration).
In the complement cascade, cleavage of C3 produces C3a and C3b. C3b contributes to the formation of enzymatic assemblies that in turn catalyze the formation of C5a from C5. The following experiment was designed to test whether inhibition of C3 cleavage, which reduces the amount of C5a formed, is effective in reducing TF expression. Modified PT assays were carried out essentially as described above using neutrophils obtained from healthy individuals and incubating them with BAL fluid from patients with ARDS. The BAL fluid from the seven patients was tested individually.

[2] = target: TNF-alpha in BALF from ARDS patients (human) (UniProt P01375); experiment: cell-based or functional assay
[3] = target: C5a receptor (C5aR) on neutrophils from healthy individuals (human) (UniProt P21730); experiment: cell-based or functional assay
[4] = test system: TF expression in neutrophils; experiment: TF expression in BALF-stimulated healthy neutrophils (APAAP immunostaining, FACS, western blot); format: cell-based, human; conditions: FIGS. 4B, C and D; healthy neutrophils + 40 μl ARDS BALF
Protocol: as §1
Alkaline-Phosphatase anti-Alkaline-Phosphatase (APAAP) Immunostaining: Smears of cells (BALF pellet and peripheral blood-isolated neutrophils, before and after stimulation and/or inhibition studies) were stored at −20° C. prior to use. […]

UniProt P01375, sequence (P01375 77-233 limits assumed): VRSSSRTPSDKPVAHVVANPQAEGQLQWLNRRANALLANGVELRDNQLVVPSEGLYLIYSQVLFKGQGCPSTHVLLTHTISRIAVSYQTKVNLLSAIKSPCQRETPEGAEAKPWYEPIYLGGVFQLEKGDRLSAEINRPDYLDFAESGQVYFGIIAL
UniProt P21730, sequence (P21730 whole entry): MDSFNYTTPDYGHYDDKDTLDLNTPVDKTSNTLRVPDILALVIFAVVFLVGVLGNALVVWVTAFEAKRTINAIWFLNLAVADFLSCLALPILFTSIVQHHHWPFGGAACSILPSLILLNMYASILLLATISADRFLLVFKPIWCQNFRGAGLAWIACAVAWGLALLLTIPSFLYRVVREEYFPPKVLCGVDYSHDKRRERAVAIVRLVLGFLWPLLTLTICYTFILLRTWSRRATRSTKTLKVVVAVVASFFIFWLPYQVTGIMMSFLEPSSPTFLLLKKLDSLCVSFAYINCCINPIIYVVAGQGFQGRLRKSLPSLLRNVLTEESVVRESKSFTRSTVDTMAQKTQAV

Molecule: NC(N)=NCCC[C@H](NC(=O)COCC(c1ccccc1)c1ccccc1)C(=O)O [SB-290152]
influence on mPT values of supernatants from BALF-stimulated neutrophils ([1]; SB-290152 10 μM, anti-IL-6 Mab 10 μg/ml, 30 minutes pretreatment): did not influence the mPT values

modified prothrombin time (mPT) of supernatants from healthy neutrophils stimulated with BALF pretreated with anti-TNF antibody [2]: 30.4 s
Molecule: Humira (Abbott Laboratories; anti-TNF monoclonal antibody)

Molecule: CC[C@H](C)[C@H](N)C(=O)N[C@H]1CSSC[C@@H](C(=O)N[C@H](C(N)=O)[C@@H](C)O)NC(=O)[C@H](CCCN=C(N)N)NC(=O)[C@H](Cc2cnc[nH]2)NC(=O)[C@H](Cc2cnc[nH]2)NC(=O)CNC(=O)[C@H](Cc2c[nH]c3ccccc23)NC(=O)[C@H](CC(=O)O)NC(=O)[C@H](CCC(N)=O)NC(=O)[C@H](C(C)C)NC(=O)[C@H](C(C)C)NC1=O [compstatin, Ile-Cys-Val-Val-Gln-Asp-Trp-Gly-His-His-Arg-Cys-Thr]
mPT, healthy neutrophils + BALF incubated with compstatin, group b ([1]; 3 ARDS cases (group b), FIG. 6, column 5, P=ns compared to BALF alone 24.13±1.31): 24.57±0.55 | mPT, healthy neutrophils + BALF preincubated with compstatin, group a ([1]; 4 ARDS cases (group a), FIG. 6, column 4, p<0.001 compared to BALF alone 24.13±1.31, PBS 32.11±0.58): 27.98±0.71 | effect on procoagulant activity in mPT, Comp b ([1]; group of 3 ARDS patients, FIG. 6): did not significantly reduce the procoagulant activity | effect on procoagulant activity in mPT, Comp a ([1]; group of 4 ARDS patients, FIG. 6): reduced the procoagulant activity

modified prothrombin time (mPT) of supernatants from BALF-stimulated healthy neutrophils pretreated with C5aR antagonist [3]: 31.9 s
Molecule: AcF-[OPdChaWR] (acetyl-Phe-[Orn-Pro-D-cyclohexylalanine-Trp-Arg]; PMX-53) (peptide)

Molecule: Acetyl-Phe-[Orn-Pro-D-cyclohexylalanine-Trp-Arg] [PMX-53]
mPT of supernatants from BALF-stimulated healthy neutrophils after blockade of signaling ([1]; 40 μl ARDS BALF, 30 minutes pretreatment, C5aR antagonist 5 μM, Humira 0.4 μg/μl, BALF without inhibitor 24.13±1.31 sec, ARDS serum control 29.69±1.64 sec, p<0.001, FIG. 4A): 31.91 ± 0.64 s | TF expression in BALF-stimulated neutrophils after blockade (immunohistochemical, flow cytometry, western blot) [4]: loss of TF expression
